The subject of assay [1] is MDA-MB-231. Nature of the assay: Antiproliferative activity against human MDA-MB-231 cells assessed as reduction in cell viability incubated for 72 hrs by WST8 assay. The assay is classed as functional, cell-based. The settings on record: MDA-MB-231, 72 h.
The test system of assay [2] is MCF7. Nature of the assay: Antiproliferative activity against human MCF7 cells assessed as reduction in cell viability incubated for 72 hrs by WST8 assay. The assay is classed as functional, cell-based. The settings on record: MCF7, 72 h.
Assay [3] has as its system BT-474. In words: Antiproliferative activity against human BT474 cells assessed as reduction in cell viability incubated for 72 hrs by WST8 assay. The assay is classed as functional, cell-based. Particulars: BT-474, 72 h.
Assay [4] relates to AU565. Nature of the assay: Antiproliferative activity against human AU565 cells assessed as reduction in cell viability incubated for 72 hrs by WST8 assay. The assay is classed as functional, cell-based. Particulars: AU565, 72 h.
Assay [5] relates to MCF7. Nature of the assay: Potency index, ratio of lapatinib IC50 to test compound IC50 for antiproliferative activity against human MCF7 cells. The assay is classed as functional.
Assay [6] concerns the target Platelet-derived growth factor receptor alpha (Homo sapiens, UniProt P16234). In words: Effect on human recombinant N-terminal GST-tagged PDGFRalpha (550 to end residues) expressed in baculovirus infected Sf9 insect cells in presence of substrate and [gamma-32ATP] at 10 uM incubated for 30 mins by scintillation counting based radiometry assay relative to control. Particulars: 0.5 h, read-out: Activity.

In assay [7] the target is Receptor tyrosine-protein kinase erbB-4 (Homo sapiens, UniProt Q15303). In words: Effect on human recombinant N-terminal GST-tagged HER4 (682 to 993) expressed in baculovirus infected Sf9 insect cells in presence of substrate and [gamma-32ATP] at 10 uM incubated for 30 mins by scintillation counting based radiometry assay relative to control. Particulars: 0.5 h, read-out: Activity.

The target of assay [8] is Receptor tyrosine-protein kinase erbB-2 (Homo sapiens, UniProt P04626). The settings on record: Sf9, human, 0.5 h.
A short description of assay [9]: Antiproliferative activity against human BC assessed as lethality at 10 uM after 48 hrs by SRB assay relative to control. The assay is classed as functional.
A short description of assay [10]: Antiproliferative activity against human BC assessed as cell growth inhibition at 10 uM after 48 hrs by SRB assay relative to control. The assay is classed as functional. The settings on record: read-out: GI.
Assay [11] is described as follows: Antiproliferative activity against human MDA-MB-231 cells assessed as lethality at 10 uM after 48 hrs by SRB assay relative to control. The assay is classed as functional, MDA-MB-23.
Assay [12] concerns MCF7. In words: Antiproliferative activity against human MCF7 cells assessed as lethality at 10 uM after 48 hrs by SRB assay relative to control. The assay is classed as functional.
Assay [13] deals with MDA-MB-468. Nature of the assay: Antiproliferative activity against human MDA-MB-468 cells assessed as lethality at 10 uM after 48 hrs by SRB assay relative to control. The assay is classed as functional.
The subject of assay [14] is MDA-MB-468. In words: Antiproliferative activity against human MDA-MB-468 cells assessed as cell growth inhibition at 10 uM after 48 hrs by SRB assay relative to control. The settings on record: read-out: GI. The assay is classed as functional.
For assay [15], the system named is Panel NCI-60 (60 carcinoma cell lines). Nature of the assay: Antiproliferative activity against human NCI60 cells assessed as lethality at 10 uM after 48 hrs by SRB assay relative to control. The assay is classed as functional.
The test system is the same in assay [16]. Nature of the assay: Antiproliferative activity against human NCI60 cells assessed as mean cell growth at 10 uM after 48 hrs by SRB assay relative to control. The assay is classed as functional.

Sequence of Platelet-derived growth factor receptor alpha (P16234 whole entry): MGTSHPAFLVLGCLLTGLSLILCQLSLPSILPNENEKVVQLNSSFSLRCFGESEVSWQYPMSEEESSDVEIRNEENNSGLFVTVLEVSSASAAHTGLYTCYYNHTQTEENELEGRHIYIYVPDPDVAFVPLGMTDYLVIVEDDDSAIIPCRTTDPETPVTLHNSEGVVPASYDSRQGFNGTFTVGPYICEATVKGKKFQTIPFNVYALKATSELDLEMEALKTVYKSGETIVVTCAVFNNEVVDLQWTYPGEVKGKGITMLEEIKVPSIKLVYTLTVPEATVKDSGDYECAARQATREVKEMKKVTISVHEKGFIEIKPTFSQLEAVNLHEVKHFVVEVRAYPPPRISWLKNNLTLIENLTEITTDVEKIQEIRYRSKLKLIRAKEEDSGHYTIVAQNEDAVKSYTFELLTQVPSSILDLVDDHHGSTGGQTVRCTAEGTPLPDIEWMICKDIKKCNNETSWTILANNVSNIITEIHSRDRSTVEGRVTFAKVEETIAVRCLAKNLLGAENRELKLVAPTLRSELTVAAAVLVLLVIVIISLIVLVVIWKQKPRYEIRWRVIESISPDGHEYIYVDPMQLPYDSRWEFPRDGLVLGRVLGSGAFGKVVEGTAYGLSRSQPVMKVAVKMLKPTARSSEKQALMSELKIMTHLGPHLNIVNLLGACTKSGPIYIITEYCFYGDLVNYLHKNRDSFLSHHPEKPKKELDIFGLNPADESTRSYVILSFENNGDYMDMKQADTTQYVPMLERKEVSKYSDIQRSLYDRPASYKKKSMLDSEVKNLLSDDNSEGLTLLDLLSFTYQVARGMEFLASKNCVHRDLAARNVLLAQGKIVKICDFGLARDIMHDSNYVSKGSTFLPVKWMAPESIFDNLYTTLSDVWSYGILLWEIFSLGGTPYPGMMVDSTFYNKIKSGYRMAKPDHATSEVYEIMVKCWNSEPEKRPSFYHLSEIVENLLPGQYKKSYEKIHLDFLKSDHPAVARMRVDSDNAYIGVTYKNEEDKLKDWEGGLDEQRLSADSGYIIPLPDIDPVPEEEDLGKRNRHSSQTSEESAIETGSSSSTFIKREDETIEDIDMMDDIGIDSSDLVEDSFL
Sequence of Receptor tyrosine-protein kinase erbB-4 (Q15303 whole entry): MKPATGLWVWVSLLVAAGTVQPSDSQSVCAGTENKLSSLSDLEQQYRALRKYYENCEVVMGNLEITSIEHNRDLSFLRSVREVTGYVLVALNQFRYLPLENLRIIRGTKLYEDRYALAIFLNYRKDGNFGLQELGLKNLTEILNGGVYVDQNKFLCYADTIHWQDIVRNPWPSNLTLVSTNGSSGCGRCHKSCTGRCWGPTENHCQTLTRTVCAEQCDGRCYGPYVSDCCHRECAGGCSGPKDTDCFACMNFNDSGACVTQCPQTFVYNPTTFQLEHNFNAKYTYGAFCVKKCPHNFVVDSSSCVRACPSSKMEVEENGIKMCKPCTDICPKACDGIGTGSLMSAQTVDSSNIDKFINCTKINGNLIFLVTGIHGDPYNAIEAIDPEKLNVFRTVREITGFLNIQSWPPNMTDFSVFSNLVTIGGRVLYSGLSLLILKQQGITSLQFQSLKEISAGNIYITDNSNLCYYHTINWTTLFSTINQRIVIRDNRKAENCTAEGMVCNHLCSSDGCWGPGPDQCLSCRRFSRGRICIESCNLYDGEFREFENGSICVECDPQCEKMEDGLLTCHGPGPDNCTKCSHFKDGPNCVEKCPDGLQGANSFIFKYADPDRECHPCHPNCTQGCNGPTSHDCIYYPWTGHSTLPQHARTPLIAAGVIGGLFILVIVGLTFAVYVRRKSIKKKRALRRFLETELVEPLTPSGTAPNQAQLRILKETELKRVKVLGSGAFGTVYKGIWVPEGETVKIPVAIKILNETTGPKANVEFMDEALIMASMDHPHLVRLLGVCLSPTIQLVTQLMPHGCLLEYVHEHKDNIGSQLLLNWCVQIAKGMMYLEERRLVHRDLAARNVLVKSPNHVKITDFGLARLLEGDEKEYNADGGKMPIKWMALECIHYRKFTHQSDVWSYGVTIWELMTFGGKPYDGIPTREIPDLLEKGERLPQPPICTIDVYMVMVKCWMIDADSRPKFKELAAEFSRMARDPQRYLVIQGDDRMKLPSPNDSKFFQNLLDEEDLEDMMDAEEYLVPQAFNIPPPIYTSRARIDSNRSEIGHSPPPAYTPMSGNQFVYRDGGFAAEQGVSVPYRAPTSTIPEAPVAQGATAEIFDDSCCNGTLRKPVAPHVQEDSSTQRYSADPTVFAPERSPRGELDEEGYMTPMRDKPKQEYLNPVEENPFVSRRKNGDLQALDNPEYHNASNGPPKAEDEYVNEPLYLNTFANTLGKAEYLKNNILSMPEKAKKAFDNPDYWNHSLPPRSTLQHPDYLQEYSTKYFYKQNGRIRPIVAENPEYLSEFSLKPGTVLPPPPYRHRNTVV
Sequence of Receptor tyrosine-protein kinase erbB-2 (P04626 whole entry): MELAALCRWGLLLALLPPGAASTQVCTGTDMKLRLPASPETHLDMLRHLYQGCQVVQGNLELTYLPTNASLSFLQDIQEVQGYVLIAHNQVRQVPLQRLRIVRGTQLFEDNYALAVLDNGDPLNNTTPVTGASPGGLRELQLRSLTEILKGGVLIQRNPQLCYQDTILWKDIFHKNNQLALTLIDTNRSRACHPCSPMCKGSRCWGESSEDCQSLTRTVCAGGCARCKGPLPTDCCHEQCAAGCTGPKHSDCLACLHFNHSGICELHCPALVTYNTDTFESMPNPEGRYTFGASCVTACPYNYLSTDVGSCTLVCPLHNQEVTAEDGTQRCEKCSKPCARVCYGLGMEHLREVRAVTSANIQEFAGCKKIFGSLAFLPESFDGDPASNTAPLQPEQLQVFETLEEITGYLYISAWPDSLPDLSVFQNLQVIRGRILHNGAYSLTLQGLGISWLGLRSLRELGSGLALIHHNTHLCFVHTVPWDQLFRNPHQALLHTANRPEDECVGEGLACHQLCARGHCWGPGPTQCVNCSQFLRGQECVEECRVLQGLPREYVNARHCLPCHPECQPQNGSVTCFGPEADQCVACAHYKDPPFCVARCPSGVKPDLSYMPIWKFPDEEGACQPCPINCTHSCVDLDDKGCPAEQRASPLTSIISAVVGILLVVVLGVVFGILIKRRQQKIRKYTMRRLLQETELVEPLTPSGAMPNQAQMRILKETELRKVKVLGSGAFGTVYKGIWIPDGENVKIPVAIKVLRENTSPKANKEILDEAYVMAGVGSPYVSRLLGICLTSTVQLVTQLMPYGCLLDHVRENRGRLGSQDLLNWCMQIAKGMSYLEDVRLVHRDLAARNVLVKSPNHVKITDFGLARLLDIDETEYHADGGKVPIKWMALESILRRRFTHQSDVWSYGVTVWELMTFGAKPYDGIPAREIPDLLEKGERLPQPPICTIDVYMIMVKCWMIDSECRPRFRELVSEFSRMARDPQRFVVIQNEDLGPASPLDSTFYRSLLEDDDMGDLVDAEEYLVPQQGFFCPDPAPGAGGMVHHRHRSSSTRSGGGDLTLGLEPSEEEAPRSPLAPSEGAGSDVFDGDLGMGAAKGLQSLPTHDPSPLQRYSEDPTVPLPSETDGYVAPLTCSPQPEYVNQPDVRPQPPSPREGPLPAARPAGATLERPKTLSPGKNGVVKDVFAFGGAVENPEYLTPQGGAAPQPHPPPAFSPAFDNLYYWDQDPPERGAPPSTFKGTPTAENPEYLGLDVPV

As for `CN1CCN(Cc2ccc(C(=O)Nc3ccc4ncnc(Nc5ccc(Oc6cccc(F)c6)c(Cl)c5)c4c3)cc2)CC1`, the IC50 is 1900 nM in assay [1], 1620 nM in assay [2], 506 nM in [3] and 767 nM in assay [4]. Also, in assay [5], the “Ratio IC50” value is given as “<=20”.

As for `CN(C)CC(=O)Nc1ccc2ncnc(Nc3ccc(Oc4cccc(C(F)(F)F)c4)c(Cl)c3)c2c1`, the IC50 in assay [1] worked out at 2660 nM; in assay [2], 5100 nM; in assay [3] it was 478 nM; in [4], 408 nM.

As to `CCN(CC)CC(=O)Nc1ccc2ncnc(Nc3ccc(Oc4cccc(C)c4)c(Cl)c3)c2c1`, the IC50 in assay [1] turned out to be 2830 nM; in assay [2], 2680 nM; in assay [3], 265 nM; in [4] it was 219 nM.

For the molecule `CNC(=O)c1cc(Oc2ccc(NC(=O)Nc3ccc(Cl)c(C(F)(F)F)c3)cc2)ccn1` [SORAFENIB], the activity at 10 µM in assay [6] is -55%; in assay [7], -60%.

For the molecule `Fc1cccc(COc2ccc(Nc3ncnc4ccc(OCCCN5CCOCC5)cc34)cc2Cl)c1`, the IC50 in assay [1] is 7320 nM; in [2], 6190 nM; in assay [3], 81 nM; in assay [4], 149 nM.

On to `O=C(Nc1ccc2ncnc(Nc3ccc(Oc4cccc(F)c4)c(Cl)c3)c2c1)c1ccc(CN2CCOCC2)cc1`, for which the IC50 worked out at 11500 nM in assay [1], 6220 nM in assay [2], 540 nM in [3] and 923 nM in assay [4].

On to `CS(=O)(=O)CCNCc1ccc(-c2ccc3ncnc(Nc4ccc(OCc5cccc(F)c5)c(Cl)c4)c3c2)o1` [LAPATINIB], for which the IC50 in assay [1] is 10400 nM; in [2] it was 6300 nM; in [3], 64 nM; in [4], 64 nM. Moreover, the results for the activity at 10 µM in assay [6], in assay [7] and in assay [8] were 56%, -99% and -52%, respectively.

Regarding `CN(C)Cc1ccc(C(=O)Nc2ccc3ncnc(Nc4ccc(Oc5cccc(F)c5)c(Cl)c4)c3c2)cc1`, the Activity entry in assay [9] is listed as “<=78.7%”; in assay [11] it was 11.7%; in [12], 11.7%; in assay [13], 11.7%; in assay [15], 1.3%; in [16] it was 11.85%. In addition, the inhibition of growth at 10 µM was at most 78.7% in assay [10] and 18.8% in assay [14]. For the same molecule, the IC50 is 5000 nM in assay [1], 2640 nM in assay [2], 339 nM in [3] and 225 nM in assay [4].

For the molecule `CN1CCN(CC(=O)Nc2ccc3ncnc(Nc4ccc(Oc5cccc(C(F)(F)F)c5)c(Cl)c4)c3c2)CC1`, the Activity entry in [9] was “<=78.7%”; in [11] it was 11.7%; in assay [12] it was 11.7%; in [13] it was 11.7%; in assay [15] it was 1.3%; in assay [16] it was 11.85%. The inhibition of growth at 10 µM in assay [10] is at most 78.7%; in assay [14] it was 18.8%. Also, the IC50 was determined as 2560 nM in assay [1], 2070 nM in [2], 369 nM in assay [3] and 441 nM in assay [4].

As to `Fc1cccc(Oc2ccc(Nc3ncnc4ccc(OCCCN5CCOCC5)cc34)cc2Cl)c1`, the IC50 in assay [1] was 10200 nM; in assay [2] it was 8330 nM; in assay [3], 283 nM; in assay [4], 311 nM.

With `Cc1cccc(Oc2ccc(Nc3ncnc4ccc(NC(=O)CN5CCOCC5)cc34)cc2Cl)c1`, the IC50 came out at 13800 nM in assay [1], 9640 nM in [2], 91 nM in [3] and 152 nM in assay [4].

Regarding `CCN(CC)CC(=O)Nc1ccc2ncnc(Nc3ccc(Oc4cccc(F)c4)c(Cl)c3)c2c1`, the IC50 in assay [1] turned out to be 3920 nM; in assay [2], 5680 nM; in assay [3], 532 nM; in assay [4], 684 nM.

In the case of `CN1CCN(CC(=O)Nc2ccc3ncnc(Nc4ccc(Oc5cccc(F)c5)c(Cl)c4)c3c2)CC1`, the IC50 in [1] was found to be 5450 nM; in assay [2] it was 5990 nM; in [3], 221 nM; in assay [4], 491 nM.

For the origin of these results see ChEMBL document CHEMBL4715878 (J Med Chem, 2020).
